Assay results taken from ChEMBL document CHEMBL3872249, “Computer design, synthesis, and bioactivity analyses of drugs like fingolimod used in the treatment of multiple sclerosis” (Bioorg Med Chem, 2017).
One block for each molecule: values may come before it. Calls of active or inactive are those of the source. No cut-off for these calls is given here.

Experiments:
[1] = biological target: Sphingosine 1-phosphate receptor 1 (Homo sapiens) (UniProt P21453); test: Agonist activity at sphingosine-1-phosphate receptor in human SH-SY5Y cells assessed as increase in cAMP level at EC10 by direct immunoassay; assay type: functional, cell-based
Sequence of Sphingosine 1-phosphate receptor 1 (Homo sapiens) (P21453 whole entry): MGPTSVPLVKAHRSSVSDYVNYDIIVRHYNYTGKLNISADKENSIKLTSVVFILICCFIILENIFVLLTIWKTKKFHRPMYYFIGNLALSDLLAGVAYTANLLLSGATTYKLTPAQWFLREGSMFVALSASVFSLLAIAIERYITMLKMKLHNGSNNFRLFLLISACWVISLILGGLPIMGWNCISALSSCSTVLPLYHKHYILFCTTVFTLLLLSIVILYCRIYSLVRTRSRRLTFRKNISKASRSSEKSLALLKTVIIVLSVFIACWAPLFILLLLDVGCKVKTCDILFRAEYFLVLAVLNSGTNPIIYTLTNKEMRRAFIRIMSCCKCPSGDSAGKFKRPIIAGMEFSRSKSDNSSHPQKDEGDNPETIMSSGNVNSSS

[2] = Cytotoxicity against human SH-SY5Y cells measured after 24 hrs by crystal-violet staining based assay; assay type: toxicity, cell-based
[3] = Cytotoxicity against human SK-N-SH cells measured after 24 hrs by crystal-violet staining based assay; assay type: toxicity, cell-based
[4] = Cytotoxicity against human U118MG cells measured after 24 hrs by crystal-violet staining based assay; assay type: toxicity, cell-based; conditions: u-118-mg
[5] = biological target: Sphingosine 1-phosphate receptor 1 (Homo sapiens) (UniProt P21453); test: Agonist activity at sphingosine-1-phosphate receptor human SK-N-SH cells assessed as increase in cAMP level at EC10 by direct immunoassay; assay type: functional, cell-based
[6] = biological target: Sphingosine 1-phosphate receptor 1 (Homo sapiens) (UniProt P21453); test: Agonist activity at sphingosine-1-phosphate receptor in human U118MG cells assessed as increase in cAMP level at EC10 by direct immunoassay; assay type: functional, cell-based; conditions: U-118-MG
[7] = biological target: Sphingosine 1-phosphate receptor 1 (Homo sapiens) (UniProt P21453); test: Agonist activity at sphingosine-1-phosphate receptor (unknown origin) expressed in HEK293 cells assessed as increase in cAMP level at EC10 after 18 hrs by CRE-responsive renilla luciferase reporter gene assay; assay type: functional, cell-based
SH-SY5Y [8] = test: Effect on PMP22 mRNA expression in human SH-SY5Y cells at EC10 by qPCR method relative to beta-actin; assay type: functional
SH-SY5Y [9] = test: Effect on CCL2 mRNA expression in human SH-SY5Y cells at EC10 by qPCR method relative to beta-actin; assay type: functional
SH-SY5Y [10] = test: Effect on CXCL10 mRNA expression in human SH-SY5Y cells at EC10 by qPCR method relative to beta-actin; assay type: functional
SH-SY5Y [11] = test: Effect on TNF mRNA expression in human SH-SY5Y cells at EC10 by qPCR method relative to beta-actin; assay type: functional
SH-SY5Y [12] = test: Effect on VCAM1 mRNA expression in human SH-SY5Y cells at EC10 by qPCR method relative to beta-actin; assay type: functional
SH-SY5Y [13] = test: Effect on TNFRSF1A mRNA expression in human SH-SY5Y cells at EC10 by qPCR method relative to beta-actin; assay type: functional
SH-SY5Y [14] = test: Effect on NFKB1 mRNA expression in human SH-SY5Y cells at EC10 by qPCR method relative to beta-actin; assay type: functional
SH-SY5Y [15] = test: Effect on ADCY5 mRNA expression in human SH-SY5Y cells at EC10 by qPCR method relative to beta-actin; assay type: functional
SH-SY5Y [16] = test: Effect on ADORA2A mRNA expression in human SH-SY5Y cells at EC10 by qPCR method relative to beta-actin; assay type: functional
SH-SY5Y [17] = test: Effect on GNAS mRNA expression in human SH-SY5Y cells at EC10 by qPCR method relative to beta-actin; assay type: functional
SH-SY5Y [18] = test: Effect on S1PR1 mRNA expression in human SH-SY5Y cells at EC10 by qPCR method relative to beta-actin; assay type: functional
SH-SY5Y [19] = test: Effect on DRD2 mRNA expression in human SH-SY5Y cells at EC10 by qPCR method relative to beta-actin; assay type: functional
U-118-MG [20] = test: Effect on PMP22 mRNA expression in human U118MG cells at EC10 by qPCR method relative to beta-actin; assay type: functional
U-118-MG [21] = test: Effect on IL10 mRNA expression in human U118MG cells at EC10 by qPCR method relative to beta-actin; assay type: functional
U-118-MG [22] = test: Effect on IL6 mRNA expression in human U118MG cells at EC10 by qPCR method relative to beta-actin; assay type: functional
U-118-MG [23] = test: Effect on TNF mRNA expression in human U118MG cells at EC10 by qPCR method relative to beta-actin; assay type: functional
U-118-MG [24] = test: Effect on ICAM1 mRNA expression in human U118MG cells at EC10 by qPCR method relative to beta-actin; assay type: functional
U-118-MG [25] = test: Effect on VCAM1 mRNA expression in human U118MG cells at EC10 by qPCR method relative to beta-actin; assay type: functional
U-118-MG [26] = test: Effect on MMP9 mRNA expression in human U118MG cells at EC10 by qPCR method relative to beta-actin; assay type: functional
U-118-MG [27] = test: Effect on NFKB1 mRNA expression in human U118MG cells at EC10 by qPCR method relative to beta-actin; assay type: functional
U-118-MG [28] = test: Effect on ADCY5 mRNA expression in human U118MG cells at EC10 by qPCR method relative to beta-actin; assay type: functional
U-118-MG [29] = test: Effect on ADORA2A mRNA expression in human U118MG cells at EC10 by qPCR method relative to beta-actin; assay type: functional
U-118-MG [30] = test: Effect on GNAS mRNA expression in human U118MG cells at EC10 by qPCR method relative to beta-actin; assay type: functional
U-118-MG [31] = test: Effect on S1PR1 mRNA expression in human U118MG cells at EC10 by qPCR method relative to beta-actin; assay type: functional
SK-N-SH [32] = test: Effect on PMP22 mRNA expression in human SK-N-SH cells at EC10 by qPCR method relative to beta-actin; assay type: functional
SK-N-SH [33] = test: Effect on CCL2 mRNA expression in human SK-N-SH cells at EC10 by qPCR method relative to beta-actin; assay type: functional
SK-N-SH [34] = test: Effect on IL10 mRNA expression in human SK-N-SH cells at EC10 by qPCR method relative to beta-actin; assay type: functional
SK-N-SH [35] = test: Effect on IL6 mRNA expression in human SK-N-SH cells at EC10 by qPCR method relative to beta-actin; assay type: functional
SK-N-SH [36] = test: Effect on TNF mRNA expression in human SK-N-SH cells at EC10 by qPCR method relative to beta-actin; assay type: functional
SK-N-SH [37] = test: Effect on EPHA1 mRNA expression in human SK-N-SH cells at EC10 by qPCR method relative to beta-actin; assay type: functional
SK-N-SH [38] = test: Effect on TNFRSF1A mRNA expression in human SK-N-SH cells at EC10 by qPCR method relative to beta-actin; assay type: functional
SK-N-SH [39] = test: Effect on NFKB1 mRNA expression in human SK-N-SH cells at EC10 by qPCR method relative to beta-actin; assay type: functional
SK-N-SH [40] = test: Effect on ADCY5 mRNA expression in human SK-N-SH cells at EC10 by qPCR method relative to beta-actin; assay type: functional
SK-N-SH [41] = test: Effect on ADORA2A mRNA expression in human SK-N-SH cells at EC10 by qPCR method relative to beta-actin; assay type: functional
SK-N-SH [42] = test: Effect on GNAS mRNA expression in human SK-N-SH cells at EC10 by qPCR method relative to beta-actin; assay type: functional
SK-N-SH [43] = test: Effect on S1PR1 mRNA expression in human SK-N-SH cells at EC10 by qPCR method relative to beta-actin; assay type: functional
SK-N-SH [44] = test: Effect on DRD2 mRNA expression in human SK-N-SH cells at EC10 by qPCR method relative to beta-actin; assay type: functional

- Activity [1]: Active
- Activity [5]: Active
- Activity [6]: Active
- Activity [7]: Active
SMILES: CCCCCCCCc1ccc(CCC(N)(CO)CO)cc1 [FINGOLIMOD]
- EC10 [2]: 540 nM
- EC10 [3]: 550 nM
- EC10 [4]: 610 nM
- fold change (FC) (SH-SY5Y [8]): -5.1694
- fold change (FC) (SH-SY5Y [9]): -7.8218
- fold change (FC) (SH-SY5Y [10]): -3.1821
- fold change (FC) (SH-SY5Y [11]): -15.9446
- fold change (FC) (SH-SY5Y [12]): -4.9933
- fold change (FC) (SH-SY5Y [13]): -10.091
- fold change (FC) (SH-SY5Y [14]): -3.9931
- fold change (FC) (SH-SY5Y [15]): -5.5117
- fold change (FC) (SH-SY5Y [16]): -4.4924
- fold change (FC) (SH-SY5Y [17]): -3.605
- fold change (FC) (SH-SY5Y [18]): -8.6788
- fold change (FC) (SH-SY5Y [19]): -9.8151
- fold change (FC) (U-118-MG [20]): -5.8716
- fold change (FC) (U-118-MG [21]): -2.5151
- fold change (FC) (U-118-MG [22]): -4.4847
- fold change (FC) (U-118-MG [23]): -5.8716
- fold change (FC) (U-118-MG [24]): -6.8152
- fold change (FC) (U-118-MG [25]): -4.7445
- fold change (FC) (U-118-MG [26]): -6.3039
- fold change (FC) (U-118-MG [27]): -3.1465
- fold change (FC) (U-118-MG [28]): -5.5057
- fold change (FC) (U-118-MG [29]): -4.9966
- fold change (FC) (U-118-MG [30]): -2.939
- fold change (FC) (U-118-MG [31]): -4.1044
- fold change (FC) (SK-N-SH [32]): -3.3914
- fold change (FC) (SK-N-SH [33]): -11.3481
- fold change (FC) (SK-N-SH [34]): -4.2704
- fold change (FC) (SK-N-SH [35]): -4.6974
- fold change (FC) (SK-N-SH [36]): -15.2356
- fold change (FC) (SK-N-SH [37]): -3.6983
- fold change (FC) (SK-N-SH [38]): -3.8155
- fold change (FC) (SK-N-SH [39]): -3.6601
- fold change (FC) (SK-N-SH [40]): -5.1851
- fold change (FC) (SK-N-SH [41]): -8.1222
- fold change (FC) (SK-N-SH [42]): -6.1024
- fold change (FC) (SK-N-SH [43]): -5.8741
- fold change (FC) (SK-N-SH [44]): -4.5217

- Activity [1]: Active
- Activity [5]: Active
- Activity [6]: Active
- Activity [7]: Active
SMILES: CCCCCCCCn1nnnc1-c1ccc(C(O)CC(N)(CO)CO)cc1.Cl (stereo not drawn)
- EC10 [2]: 300 nM
- EC10 [3]: 270 nM
- EC10 [4]: 360 nM
- fold change (FC) (SH-SY5Y [8]): -3.0092
- fold change (FC) (SH-SY5Y [9]): -4.1393
- fold change (FC) (SH-SY5Y [10]): -3.1588
- fold change (FC) (SH-SY5Y [11]): -3.511
- fold change (FC) (SH-SY5Y [12]): -4.0191
- fold change (FC) (SH-SY5Y [13]): -3.2986
- fold change (FC) (SH-SY5Y [14]): -3.5415
- fold change (FC) (SH-SY5Y [15]): -4.3188
- fold change (FC) (SH-SY5Y [16]): -4.6048
- fold change (FC) (SH-SY5Y [17]): -4.6852
- fold change (FC) (SH-SY5Y [18]): -5.0215
- fold change (FC) (SH-SY5Y [19]): -3.4837
- fold change (FC) (U-118-MG [20]): -5.4523
- fold change (FC) (U-118-MG [21]): -2.6793
- fold change (FC) (U-118-MG [22]): -4.3829
- fold change (FC) (U-118-MG [23]): -6.5178
- fold change (FC) (U-118-MG [24]): -5.4736
- fold change (FC) (U-118-MG [25]): -5.7757
- fold change (FC) (U-118-MG [26]): -4.5002
- fold change (FC) (U-118-MG [27]): -4.6974
- fold change (FC) (U-118-MG [28]): -6.08
- fold change (FC) (U-118-MG [29]): -4.4431
- fold change (FC) (U-118-MG [30]): -3.2119
- fold change (FC) (U-118-MG [31]): -3.8312
- fold change (FC) (SK-N-SH [32]): -5.2416
- fold change (FC) (SK-N-SH [33]): -4.9933
- fold change (FC) (SK-N-SH [34]): -4.6028
- fold change (FC) (SK-N-SH [35]): -4.899
- fold change (FC) (SK-N-SH [36]): -4.9674
- fold change (FC) (SK-N-SH [37]): -3.7516
- fold change (FC) (SK-N-SH [38]): -4.1053
- fold change (FC) (SK-N-SH [39]): -3.6999
- fold change (FC) (SK-N-SH [40]): -4.6187
- fold change (FC) (SK-N-SH [41]): -4.3394
- fold change (FC) (SK-N-SH [42]): -4.4537
- fold change (FC) (SK-N-SH [43]): -4.2281
- fold change (FC) (SK-N-SH [44]): -4.2208
